Laboratory results as given in ChEMBL document CHEMBL5131473, “One-pot synthesis of oxoaporphines as potent antitumor agents and investigation of their mechanisms of actions” (Eur J Med Chem, 2022).
Calls of active or inactive are those of the source. No cut-off for these calls is given here.

How the values were obtained:
T-24 [1] = experiment: Induction of DNA damage in human T24 cells assessed as increase in […] p53 expression at 10 to 15 uM incubated for 24 hrs by Western blot analysis; format: functional, cell-based; conditions: dose 10-15 µM
T-24 [2] = experiment: Induction of cell cycle arrest in human T24 cells assessed as increase in Cyclin B expression at 10 to 15 uM incubated for 24 hrs by chemiluminescence based Western blotting analysis; format: functional; conditions: dose 10-15 µM, DDE = dose-dependent effect
[3] = Toxicity in BALB/C nude mouse xenografted with human T24 cells assessed as effect on kidney at 30 mg/kg, IG administered every 2 days for 14 days by H and E staining based assay; format: organism-based, T-24; conditions: in vivo, po, 336 h, time 14 day
T-24 [4] = experiment: Antitumor activity against human T24 cells xenografted in BALB/c nude mouse assessed as tumor growth inhibition at 30 mg/kg, IG administered every 2 days for 14 days; format: functional; set-up: scale not given: the % may be the effect or the level left; conditions: time 14 day
MGC-803 = experiment: Antiproliferative activity against human MGC-803 cells assessed as cell growth inhibition measured after 48 hrs by MTT assay; format: functional, cell-based; conditions: MGC-803, 48 h
T-24 [5] = experiment: Induction of ROS accumulation in human T24 cells assessed as increase in intracellular ROS level at 10 uM by […] based flow cytometry; format: functional, cell-based
T-24 [6] = experiment: Induction of apoptosis in human T24 cells assessed as necrotic cells at 10 uM incubated for 24 hrs by Annexin-V/PI staining based flow cytometry analysis (reference value: 1.92 %); format: functional
WI-38 [7] = experiment: Cytotoxicity against human WI-38 cells by MTT assay; format: toxicity, cell-based
T-24 [8] = experiment: Induction of apoptosis in human T24 cells assessed as early apoptotic cells at 15 uM incubated for 24 hrs by Annexin-V/PI staining based flow cytometry analysis (reference value: 3.27 %); format: functional
T-24 [9] = experiment: Induction of DNA damage in human T24 cells assessed as DNA strand breakage by measuring comet formation at 10 uM incubated for 24 hrs by comet assay; format: functional, cell-based
SK-OV-3 = experiment: Antiproliferative activity against human SK-OV-3 cells assessed as cell growth inhibition measured after 48 hrs by MTT assay; format: functional, cell-based; conditions: SK-OV-3, 48 h
T-24 [10] = experiment: Induction of mitochondrial membrane potential dysfunction in human T24 cells assessed as change in morphology at 10 to 15 uM by Mitotracker green dye based fluorescence microscopy; format: functional, cell-based; conditions: dose 10-15 µM
WI-38 [11] = experiment: Induction of apoptosis in human WI-38 cells at IC50; format: toxicity, cell-based
[12] = Toxicity in BALB/C nude mouse xenografted with human T24 cells assessed as decrease in body weight at 30 mg/kg, IG administered every 2 days for 14 days; format: organism-based, T-24; conditions: in vivo, po, 336 h, time 14 day
HepG2 = experiment: Antiproliferative activity against human HepG2 cells assessed as cell growth inhibition measured after 48 hrs by MTT assay; format: functional, cell-based; conditions: HepG2, 48 h
[13] = Toxicity in BALB/C nude mouse xenografted with human T24 cells assessed as effect on lung at 30 mg/kg, IG administered every 2 days for 14 days by H and E staining based assay; format: organism-based, T-24; conditions: in vivo, po, 336 h, time 14 day
WI-38 [14] = experiment: Antiproliferative activity against human WI-38 cells assessed as cell growth inhibition measured after 48 hrs by MTT assay; format: functional, cell-based; conditions: WI-38, 48 h
T-24 [15] = experiment: Antitumor activity against human T24 cells xenografted in BALB/c nude mouse assessed as reduction in tumor volume at 30 mg/kg, IG administered every 2 days for 14 days; format: functional; conditions: time 14 day
[16] = Toxicity in BALB/C nude mouse xenografted with human T24 cells assessed as effect on heart at 30 mg/kg, IG administered every 2 days for 14 days by H and E staining based assay; format: organism-based, T-24; conditions: in vivo, po, 336 h, time 14 day
T-24 [17] = experiment: Induction of apoptosis in human T24 cells assessed as increase in caspase 3 activity at 10 uM (Rvb= 3.1%); format: functional
T-24 [18] = experiment: Antitumor activity against human T24 cells xenografted in BALB/c nude mouse assessed as inhibition of tumor metastasis in liver at 30 mg/kg, IG administered every 2 days for 14 days; format: functional, organism-based; conditions: time 2.0 day
T-24 [19] = experiment: Antiproliferative activity against human T24 cells assessed as cell growth inhibition measured after 48 hrs by MTT assay; format: functional, cell-based; conditions: T-24, 48 h
T-24 [20] = experiment: Cytotoxicity against human T24 cells assessed as decrease in cell viability measured after 48 hrs by MTT assay; format: toxicity, cell-based; conditions: t-24, 48 h, 20 µM, DDE = dose-dependent effect
[21] = Toxicity in BALB/C nude mouse xenografted with human T24 cells assessed as effect on liver at 30 mg/kg, IG administered every 2 days for 14 days by H and E staining based assay; format: organism-based, T-24; conditions: in vivo, po, 336 h, time 14 day
T-24 [22] = experiment: Induction of mitochondrial mediated apoptosis in human T24 cells assessed as increase in Bak protein expression at 10 to 15 uM incubated for 24 hrs by Western blotting analysis; format: functional, cell-based; conditions: dose 10-15 µM
T-24 [23] = experiment: Induction of apoptosis in human T24 cells assessed as necrotic cells at 2 uM incubated for 24 hrs by Annexin-V/PI staining based flow cytometry analysis (reference value: 1.92 %); format: functional
T-24 [24] = experiment: Induction of cell cycle arrest in human T24 cells assessed as accumulation of cells at S phase at 4 uM incubated for 24 hrs by propidium iodide/RNase A staining based flow cytometry analysis (reference value: 42.47 %); format: functional
T-24 [25] = experiment: Induction of apoptosis in human T24 cells assessed as viable cells at 2 uM incubated for 24 hrs by Annexin-V/PI staining based flow cytometry analysis (reference value: 94.3 %); format: functional; conditions: read-out: Activity
T-24 [26] = experiment: Induction of mitochondrial membrane potential dysfunction in human T24 cells assessed as depolarised cells at 4 uM incubated for 24 hrs by JC-1 staining based flow cytometry (reference value: 6.20%); format: functional
T-24 [27] = experiment: Induction of apoptosis in human T24 cells assessed as early apoptotic cells at 2 uM incubated for 24 hrs by Annexin-V/PI staining based flow cytometry analysis (reference value: 3.27 %); format: functional
T-24 [28] = experiment: Induction of apoptosis in human T24 cells assessed as condensation of nuclei at 2 uM by Hoechst33258 staining based fluorescence microscopy; format: functional, cell-based
T-24 [29] = experiment: Induction of mitochondrial membrane potential dysfunction in human T24 cells assessed as shrinking mitochondria at 2 uM incubated for 24 hrs by TEM analysis; format: functional, cell-based
T-24 [30] = experiment: Induction of mitochondrial mediated apoptosis in human T24 cells assessed as upregulation of apaf-1 expression at 2 to 4 uM incubated for 24 hrs by Western blotting analysis; format: functional, cell-based; conditions: dose 2-4 µM
T-24 [31] = experiment: Induction of apoptosis in human T24 cells assessed as late apoptotic cells at 2 uM incubated for 24 hrs by Annexin-V/PI staining based flow cytometry analysis (reference value: 0.543 %); format: functional
T-24 [32] = experiment: Induction of mitochondrial membrane potential dysfunction in human T24 cells assessed as disappearance of cristae at 0.5 uM incubated for 24 hrs by TEM analysis; format: functional, cell-based
T-24 [33] = experiment: Induction of mitochondrial membrane potential dysfunction in human T24 cells assessed as decrease in ATP production at 1 uM; format: functional; set-up: scale not given: the % may be the effect or the level left
T-24 [34] = experiment: Inhibition of cell migration in human T24 cells assessed as recovery of wound area at 0.25 uM measured after 24 hrs by wound healing assay based fluorescence microscopy; format: functional; set-up: scale not given: the % may be the effect or the level left
T-24 [35] = experiment: Induction of mitochondrial membrane potential dysfunction in human T24 cells assessed as depolarised cells at 0.5 uM incubated for 24 hrs by JC-1 staining based flow cytometry (reference value: 6.20%); format: functional

| Structure (SMILES) | Activity [3] | Activity (T-24 [4]) | IC50 (MGC-803) | Activity (WI-38 [7]) | IC50 (SK-OV-3) | Activity (WI-38 [11]) | Activity [12] | IC50 (HepG2) | Activity [13] | IC50 (WI-38 [14]) | Activity (T-24 [15]) | Activity [16] | Activity (T-24 [18]) | IC50 (T-24 [19]) | Activity (T-24 [20]) | Activity [21] | Activity (T-24 [23]) | viability at 2 µM (T-24 [25]) | Activity (T-24 [27]) | Activity (T-24 [31]) | further results |
| --- | --- | --- | --- | --- | --- | --- | --- | --- | --- | --- | --- | --- | --- | --- | --- | --- | --- | --- | --- | --- | --- |
| O=C1c2ccccc2-c2cccc3ccnc1c23 | Non-Toxic | 40.8% | 12.6 µM | Non-Toxic | 37 µM | Non-Toxic | Non-Toxic | 12.3 µM | Non-Toxic | 20.2 µM | 722.033 mm3 | Non-Toxic | Active | 9.5 µM | Dde | Non-Toxic | – | – | – | – | Activity (T-24 [1]): Active; Activity (T-24 [2]): Dde; Activity (T-24 [5]): Active; Activity (T-24 [6]): 3.31%; Activity (T-24 [8]): 32.9%; Activity (T-24 [9]): Active; Activity (T-24 [10]): Active; Activity (T-24 [17]): 19.9%; Activity (T-24 [22]): Active |
| O=C1c2cc([N+](=O)[O-])ccc2-c2ccc([N+](=O)[O-])c3ccnc1c23 | Non-Toxic | 30.7% | 2.3 µM | Non-Toxic | 16 µM | Non-Toxic | Non-Toxic | 2.2 µM | Non-Toxic | 20.4 µM | 846.52 mm3 | Non-Toxic | Active | 2 µM | Dde | Non-Toxic | 1.97% | 65.8% | 27.4% | 4.79% | Activity (T-24 [24]): 70.53%; Activity (T-24 [26]): 31.3%; Activity (T-24 [28]): Active; Activity (T-24 [29]): Active; Activity (T-24 [30]): Active |
| O=C1c2ccccc2-c2ccc([N+](=O)[O-])c3ccnc1c23 | Non-Toxic | 49.5% | 1.1 µM | Non-Toxic | 8.9 µM | Non-Toxic | Non-Toxic | 1.3 µM | Non-Toxic | 14.8 µM | 605.28 mm3 | Non-Toxic | Active | 0.5 µM | Dde | Non-Toxic | 0.914% | 32.7% | 57.7% | 8.68% | Activity (T-24 [32]): Active; Activity (T-24 [33]): 47.3%; Activity (T-24 [34]): 15.9%; Activity (T-24 [35]): 37% |
